# Test results reported in US20250281498A1, “FUSED AMINO PYRIMIDINE COMPOUNDS FOR TREATMENT OF SYNUCLEINOPATHIES AND TDP-43 PROTEINOPATHIES” (Ovid Therapeutics Inc., priority 2024, published 2025).
# Legend:
# [1] = molecular target: T1, NKCC1 (Homo sapiens, UniProt P55011); experiment: TI+ flux assay, HEK-293 cells expressing NKCC1; type: cell-based; details: read-out: concentration at which effects on NKCC1 were seen (EC50 chart FIG. 1G)
# T1 construct: expressed in transfected cells; host or cells: HEK-293
# T1 sequence (P55011 1-1212): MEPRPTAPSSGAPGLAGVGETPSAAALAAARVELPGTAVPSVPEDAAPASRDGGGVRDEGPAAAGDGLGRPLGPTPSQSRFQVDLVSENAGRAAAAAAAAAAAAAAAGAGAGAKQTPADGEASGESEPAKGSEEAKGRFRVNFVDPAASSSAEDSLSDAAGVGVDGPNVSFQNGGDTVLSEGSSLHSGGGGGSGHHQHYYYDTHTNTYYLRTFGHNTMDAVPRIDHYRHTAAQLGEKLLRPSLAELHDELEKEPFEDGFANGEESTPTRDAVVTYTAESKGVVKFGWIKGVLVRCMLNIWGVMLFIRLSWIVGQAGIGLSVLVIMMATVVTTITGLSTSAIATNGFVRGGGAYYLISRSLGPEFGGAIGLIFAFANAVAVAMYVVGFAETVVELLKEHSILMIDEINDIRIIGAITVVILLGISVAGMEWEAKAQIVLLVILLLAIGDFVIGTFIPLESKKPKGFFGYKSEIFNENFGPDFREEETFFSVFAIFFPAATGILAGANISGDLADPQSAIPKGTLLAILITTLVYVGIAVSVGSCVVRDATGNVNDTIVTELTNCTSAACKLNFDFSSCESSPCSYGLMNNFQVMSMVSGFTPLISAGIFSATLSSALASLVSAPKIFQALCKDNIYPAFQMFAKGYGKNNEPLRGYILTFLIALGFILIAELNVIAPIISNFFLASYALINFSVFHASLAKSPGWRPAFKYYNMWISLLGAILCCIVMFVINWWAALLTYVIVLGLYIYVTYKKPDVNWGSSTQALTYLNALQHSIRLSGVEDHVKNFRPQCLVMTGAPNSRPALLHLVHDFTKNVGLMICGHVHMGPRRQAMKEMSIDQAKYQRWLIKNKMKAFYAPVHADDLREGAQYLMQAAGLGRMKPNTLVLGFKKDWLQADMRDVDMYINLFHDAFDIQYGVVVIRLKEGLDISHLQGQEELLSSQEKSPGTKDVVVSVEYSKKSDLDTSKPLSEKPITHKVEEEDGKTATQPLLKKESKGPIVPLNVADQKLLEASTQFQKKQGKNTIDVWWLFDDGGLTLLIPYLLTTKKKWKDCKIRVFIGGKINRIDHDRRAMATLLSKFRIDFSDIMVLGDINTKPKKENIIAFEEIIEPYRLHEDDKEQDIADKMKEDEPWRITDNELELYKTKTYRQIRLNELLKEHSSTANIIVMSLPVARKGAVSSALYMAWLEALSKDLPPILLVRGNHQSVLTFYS
# Protocol: (§1) FLIPR TI Flux assay. HEK-293 cells were washed with HBSS, and then incubated with loading buffer containing TI sensitive fluorescent dye (https://www.moleculardevices.com), 20 μM bumetanide 20 μM ouabain and 2.5 mM probenecid for 1 h at room temperature (RT) under control conditions or with drugs in the dark using a FlexStation 3 microplate reader (Molecular Devices) and imaged […] for 30 min. Stimulus buffer was added containing 5 mM K^+/0.5 mM Tl^+ and cells were imaged every 1.5 over a 190 second time course The initial rate Tl^+ uptake (Relative Fluorescence Units (RFU) per second) was determined following addition of the stimulus buffer as outlined previously (Conway et al., 2017, supra) (Lee et al., 2022, supra).
# (§2) Several studies have shown that the activity and plasma membrane accumulation of KCC2 is potentiated via phosphorylation of S940, a process mediated by the activity of protein kinase C and protein phosphatase 1 (Lee et al., 2011, supra; Lee et al., J Biol Chem 282, 29777-29784 (2007); Moore et al., Proc. Natl. Acad. Sci. U.S.A. 115, 10166-10171 (2018); Moore et al., Trends Neurosci. 40, 555-571 (2017); Silayeva et al., Proc. Natl. Acad. Sci. U.S.A. 112, 3523-3528 (2015)). […] Compared to KCC2, effects on KCC3, KCC4, and NKCC1 were only seen at concentrations more than 35-fold that of KCC2 (>100 μM) (FIG. 1G).
# [2] = molecular target: T2, KCC4 (Homo sapiens, UniProt Q9Y666); experiment: TI+ flux assay, HEK-293 cells expressing KCC4; type: cell-based; details: read-out: concentration at which effects on KCC4 were seen (EC50 chart FIG. 1G)
# T2 construct: expressed in transfected cells; host or cells: HEK-293
# T2 sequence (Q9Y666 1-1083): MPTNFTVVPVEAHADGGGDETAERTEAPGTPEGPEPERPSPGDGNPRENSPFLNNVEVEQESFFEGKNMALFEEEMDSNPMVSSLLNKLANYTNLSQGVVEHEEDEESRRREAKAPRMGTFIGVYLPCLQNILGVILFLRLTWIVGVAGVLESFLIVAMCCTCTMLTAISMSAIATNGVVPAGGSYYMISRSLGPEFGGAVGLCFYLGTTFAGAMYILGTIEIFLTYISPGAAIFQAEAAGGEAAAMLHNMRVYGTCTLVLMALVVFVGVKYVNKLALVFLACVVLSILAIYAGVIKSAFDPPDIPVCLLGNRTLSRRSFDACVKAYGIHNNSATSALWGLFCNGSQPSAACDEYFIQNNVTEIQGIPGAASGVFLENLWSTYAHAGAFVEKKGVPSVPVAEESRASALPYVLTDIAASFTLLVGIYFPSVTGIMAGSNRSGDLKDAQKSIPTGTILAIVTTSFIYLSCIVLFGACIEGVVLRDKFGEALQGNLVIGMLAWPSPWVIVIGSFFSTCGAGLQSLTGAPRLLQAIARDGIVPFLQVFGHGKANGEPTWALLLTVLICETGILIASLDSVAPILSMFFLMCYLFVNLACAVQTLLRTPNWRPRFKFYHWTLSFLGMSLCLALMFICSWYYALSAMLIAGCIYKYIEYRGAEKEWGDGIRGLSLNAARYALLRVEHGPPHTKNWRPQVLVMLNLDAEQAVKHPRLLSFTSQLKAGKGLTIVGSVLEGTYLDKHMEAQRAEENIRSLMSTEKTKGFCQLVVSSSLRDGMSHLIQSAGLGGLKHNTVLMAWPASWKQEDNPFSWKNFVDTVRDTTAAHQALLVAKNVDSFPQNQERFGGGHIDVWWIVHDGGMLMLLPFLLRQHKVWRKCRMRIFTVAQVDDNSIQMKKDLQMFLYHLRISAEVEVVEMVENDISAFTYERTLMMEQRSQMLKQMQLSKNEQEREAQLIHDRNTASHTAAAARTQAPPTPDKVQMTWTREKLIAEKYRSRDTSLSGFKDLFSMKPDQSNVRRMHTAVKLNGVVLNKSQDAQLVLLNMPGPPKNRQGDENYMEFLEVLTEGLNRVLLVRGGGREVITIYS
# Protocol: as §1, §2
# [3] = parameters: species or system mice; details: in vivo
smiles,measurement,setting,value
"C[C@@H]1CN(c2nc3c(c(Nc4ccc(C5CCCCC5)cc4)n2)COC3)CCO1 [Compound A, (R)—N-(4-cyclohexylphenyl)-2-(2-methylmorpholino)-5,7-dihydrofuro[3,4-d]pyrimidin-4-amine]",EC50,[1],> 100 µM
same,EC50,[2],> 100 µM
same,gross effects on mouse behavior in the open field,[3],no gross effects on mouse behavior
same,total distance traveled in open field,"[3]; mouse, sc, 50 mg/kg",6134.2±235.3 cm
